“And” between values parts separate entries of the source, which are not always exact repeats. Equal values may be shown once. Marks after values point to notes of the source that are not given here. One block for each molecule: values may come before it.
Key:
[1] = tested on: MCF-7 breast cancer cells; conditions: RU 2619457; cited from earlier work
ovariectomized rats = assay: Biochemical parameters of ovariectomized rats; type: in vivo, rat; conditions: ovariectomised rats, EE 0.1 mg/kg bw
[2] = Hormonal effect: uterine body weight in tumor-bearing mice; type: in vivo, mouse; conditions: Tamoxifen-1 group, 4 mg/kg
uterine body [3] = assay: as above; type: in vivo, mouse; conditions: Tamoxifen-1 group, 4 mg/kg; estrous phase E
uterine body [4] = assay: as above; type: in vivo, mouse; conditions: Tamoxifen-1 group, 4 mg/kg
Experimental: To estimate the hormonal effect of the medicament, the weight of the uterine body without uterine horns was measured (Table 9).

[5] = tested on: breast tumors in female FVB mice transgenic for HER-2/neu; assay: Antitumor activity on model of multiple breast tumors in HER-2/neu transgenic mice; conditions: for Average total volume of tumors in mice (M) / Average volume of tumors present at the beginning of the experiment (M): i.g. daily
Experimental: Two adenocarcinoma subtypes can be differentiated, in particular ER+, PR−, and ER−, PR− [2].
The study was carried out in female FVB mice transgenic for HER-2/neu by conventional category; the strain was obtained from the mouse bank Charles River Laboratories (Italy). At the beginning of the study the animals were 21-41 weeks old having weight of 25 to 30 g.
The study medicament was administered i.g. using a metal atraumatic gavage (with the procedure corresponds to the oral route of administration in clinical settings). The medicament was administered in a single daily dose (20 mg/kg of body weight) and 5-fold daily dose of 100 mg/kg of body weight. Ex tempore solutions of the medicament for administration were prepared in olive oil (refined olive oil supplemented with unrefined extra virgin olive oil available under Global Village “Clasico” trademark, lot L:183351116, expiry date 26 Apr. 2020, BAIEO, Spain). The administered volume was 0.1 ml per 10 g of a mouse body weight (0.2 ml of a ready-to-use formulation for a mouse of 20 g). The medicament administration was started 24 hours after the randomization. The duration of the administration course was 27-28 days.
This dose corresponds to a human daily dose of 20 mg/kg.
The control groups were given the olive oil (placebo).
The evaluation criteria included the clinical observation data, animals body weights, time of death (if applicable), tumor growth over time, pathomorphological examination data (verification of a neoplasm during autopsy, assessment of toxic effects by macroscopic presentation of changes in the internal organs).
The animals body weights were recorded before the first administration of the medicaments and then twice per week using a verified high-speed electronic laboratory balance Ohaus Scout Pro (USA) with a maximum load of 2000 g and a measurement step of 0.1 g.
Macroscopically detectable tumor nodes were measured in animals once per week during weighing process. Two linear dimensions including the largest one and the largest rectangular to the former were recorded for each of the nodes. The largest dimension was taken as a length (a) and the second dimension as a width (b) of the tumor nodes. A tumor volume was calculated by the expression as follows: […]
The efficacy of the therapy was assessed by recording a change in the average tumor volume, tumor growth inhibition (TGI), and the average total tumor volumes and its change over time in each of the mice.
The percent of tumor growth inhibition was calculated by the expression as follows:
TGI=(Vctrl−Vexp)/Vctrl×100(%),
where Vctrl is an average tumor volume in a control group, and Vexp is an average tumor volume in an experimental group.
The primary data from individual forms were transferred to Microsoft Excel 2007 books. The group arithmetic average (M) and standard deviation (m) were calculated for all quantitative data. The statistical analysis was performed using the statistical software GraphPad Prism 6.0. The differences between the groups were assessed using ANOVA regression analysis and the Fisher's exact test.

[6] = first class: high solubility, high permeability, second class: low solubility; cited from earlier work
uterus = conditions: literature / prior art; cited from earlier work
[7] = Tamoxifen group, dose 1.4 mg/kg, Day 6
[8] = Tamoxifen group, dose 1.4 mg/kg, Day 13
[9] = Tamoxifen group, dose 1.4 mg/kg, Day 20
[10] = Tamoxifen group, dose 1.4 mg/kg, Day 27
[11] = Tamoxifen group, dose 1.4 mg/kg, Day −1
[12] = Tamoxifen group, dose 1.4 mg/kg, Day 27 vs Day −1
[13] = Tamoxifen-1 group, 4 mg/kg i.g. daily, end of study

SMILES: C[C@H]1Oc2cc(OS(N)(=O)=O)ccc2C2=C1C1=CCC[C@H](OS(N)(=O)=O)[C@@]1(C)CC2 [3,17αβ-disulfamoyloxy-7β-methyl-D-homo-6-oxa-estra-1,3,5(10), 8,14-pentaen]
Growth of MCF-7 breast cancer cells [1]: inhibitor of the growth

Uterus weight (ovariectomized rats): 164 ± 11 mg/100 g bw
SMILES: C#C[C@]1(O)CC[C@H]2[C@@H]3CCc4cc(O)ccc4[C@H]3CC[C@@]21C [EE, 17α-ethinyl estradiol, reference compound]

SMILES: CC/C(=C(\c1ccccc1)c1ccc(OCCN(C)C)cc1)c1ccccc1 [Tamoxifen, reference compound]
Body weight ([2]; all mice): 28.2 ± 1.0 g
Body weight ([2]; estrous phase D): 30.5 g
Body weight ([2]; estrous phase E): 28.0 ± 1.0 g
Uterine body weight (uterine body [3]): 31 ± 2 mg
Uterine body weight (uterine body [4]; all mice): 32 ± 2 mg
Uterine body weight (uterine body [4]; estrous phase D): 34 mg
Average total volume of tumors in mice (M) [5, 7]: 0.76 cm^3
Average volume of tumors present at the beginning of the experiment (M) [5, 7]: 0.26 cm^3
Average total volume of tumors in mice (M) [5, 8]: 0.88 cm^3
Average volume of tumors present at the beginning of the experiment (M) [5, 8]: 0.3 cm^3
Average total volume of tumors in mice (M) [5, 9]: 1.38 cm^3
Average volume of tumors present at the beginning of the experiment (M) [5, 9]: 0.47 cm^3
Average total volume of tumors in mice (M) [5, 10]: 1.68 cm^3
Average volume of tumors present at the beginning of the experiment (M) [5, 10]: 0.58* cm^3
Average total volume of tumors in mice (M) [5, 11]: 0.66 cm^3
Average volume of tumors present at the beginning of the experiment (M) [5, 11]: 0.23 cm^3
TGI (average total tumor volume) [5, 7]: −12%
TGI (average tumor volume) [5, 7]: 13%
TGI (average total tumor volume) [5, 8]: −32%
TGI (average tumor volume) [5, 8]: 46%
TGI (average total tumor volume) [5, 9]: 9%
TGI (average tumor volume) [5, 9]: 29%
TGI (average total tumor volume) [5, 10]: 18%
% of change from baseline (average total tumor volume) [5, 12]: 155%
% of change to the initial value (average tumor volume) [5, 12]: 152%
TGI (average total tumor volume) [5, 11]: −57%
TGI (average tumor volume) [5, 11]: −28%
Average volume of new tumors at the end of the observation period (M) ([5]; Tamoxifen-1 group, 4 mg/kg i.g. daily, 4 mg/kg): 0.16±0.05 cm^3 and 0.16 cm^3
Absolute number of new tumors [5, 13]: 21
Frequency of tumor stabilizations [5, 13]: 10%
Average volume of new tumors, % less than that of the control group ([5]; Tamoxifen-1 group, end of observation): 52%

SMILES: CC(C)(C#N)c1cc(Cn2cncn2)cc(C(C)(C)C#N)c1 [anastrazole]
BCS class [6]: first class

SMILES: C[C@]12CC[C@@H]3c4ccc(OS(N)(=O)=O)cc4CC[C@H]3[C@@H]1CCC2=O [estrone sulfamate]
Uterotropic activity (uterus): strong uterotropic activity

SMILES: N#Cc1ccc(C(c2ccc(C#N)cc2)n2cncn2)cc1 [letrozole]
BCS class [6]: first class

— US20220106282A1, “TREATMENT FOR BREAST CANCER, INCLUDING TRIPLE-NEGATIVE BREAST CANCER” (priority 2018, published 2022)
